Test system: CAL-85-1
Assay: normalised response (% of control), CellTiter-Glo; higher = more viable cells (100 = DMSO, 0 = benzethonium chloride kill control)
Settings: incubation time: 72 h
Protocol: (§1)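 DSRT, 72 h incubation, CellTox Green / CellTiter-Glo readout. Signal is normalised to DMSO and benzethonium chloride controls. Value is the normalised response at the highest dose.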

Going from `CN(C)C(=N)NC(=N)N` [Metformin] (100000 nM) to `CN(Cc1cnc2nc(N)nc(N)c2n1)c1ccc(C(=O)N[C@@H](CCC(=O)O)C(=O)O)cc1` [Methotrexate] (50000 nM), the normalised response falls from 104% to 49.6%.

`C=CCN(/C=C1/C(=O)O[C@H](COC)[C@@]2(C)C1=C(O)C(=O)C1=C2[C@H](OC(C)=O)C[C@]2(C)C(=O)CC[C@@H]12)CC=C` [Sonolisib] (10000 nM) gave a normalised response of 103%.

Test system: DU-4475
Assay: as above
Settings: incubation time: 72 h
Protocol: as §1

Compared with `CCn1c(C(=O)N(C2CC2)C2CC2)cc2c3c(ncn3C)c(Nc3cc(C)n(C)n3)nc21` (10000 nM), `C=CCN(/C=C1/C(=O)O[C@H](COC)[C@@]2(C)C1=C(O)C(=O)C1=C2[C@H](OC(C)=O)C[C@]2(C)C(=O)CC[C@@H]12)CC=C` [Sonolisib] (10000 nM) is lower in normalised response: 97.9% for the first, 96.5% for the second.

Going from `CN[C@@H](C)C(=O)N[C@H]1CN(C(=O)CC(C)C)CC[C@H]2CC[C@@H](C(=O)NC(c3ccccc3)c3ccccc3)N2C1=O` [AT-406] (10000 nM) to `O=C(O)CNC(=O)c1c(O)c2ccccc2n(Cc2ccccc2)c1=O` [IOX-2] (50000 nM), the normalised response rises from 97.9% to 98.3%.

Compared with `CCN(CC)CCCC(C)Nc1ccnc2cc(Cl)ccc12` (stereo not given) [Chloroquine] (100000 nM), `CN(Cc1cnc2nc(N)nc(N)c2n1)c1ccc(C(=O)N[C@@H](CCC(=O)O)C(=O)O)cc1` [Methotrexate] (50000 nM) is higher in normalised response: 0.38% for the first, 92.3% for the second.

First: CC(C)(C)c1nc(-c2cccc(NS(=O)(=O)c3c(F)cccc3F)c2F)c(-c2ccnc(N)n2)s1 [Dabrafenib] (2500 nM)
Second: Cc1nc(C(=O)NCC(=O)O)c(O)c2ccc(Oc3ccccc3)cc12 [FG-4592] (10000 nM)
The normalised response of the first is lower: 0.71% for the first, 97% for the second.

Work on `CN(C)C(=N)NC(=N)N` [Metformin] (100000 nM) yielded a normalised response of 79.1%.

Test system: HCC1143
Assay: as above
Settings: incubation time: 72 h
Protocol: as §1

First: CCn1c(C(=O)N(C2CC2)C2CC2)cc2c3c(ncn3C)c(Nc3cc(C)n(C)n3)nc21 (10000 nM)
Second: C=CCN(/C=C1/C(=O)O[C@H](COC)[C@@]2(C)C1=C(O)C(=O)C1=C2[C@H](OC(C)=O)C[C@]2(C)C(=O)CC[C@@H]12)CC=C [Sonolisib] (10000 nM)
The normalised response of the first is higher: 93.2% for the first, 91.8% for the second.

Compared with `CN[C@@H](C)C(=O)N[C@H]1CN(C(=O)CC(C)C)CC[C@H]2CC[C@@H](C(=O)NC(c3ccccc3)c3ccccc3)N2C1=O` [AT-406] (10000 nM), `O=C(O)CNC(=O)c1c(O)c2ccccc2n(Cc2ccccc2)c1=O` [IOX-2] (50000 nM) is higher in normalised response: 85.5% for the first, 92.6% for the second.

Going from `CCN(CC)CCCC(C)Nc1ccnc2cc(Cl)ccc12` (stereo not given) [Chloroquine] (100000 nM) to `CN(Cc1cnc2nc(N)nc(N)c2n1)c1ccc(C(=O)N[C@@H](CCC(=O)O)C(=O)O)cc1` [Methotrexate] (50000 nM), the normalised response rises from 22.8% to 84.4%.

Compared with `CC(C)(C)c1nc(-c2cccc(NS(=O)(=O)c3c(F)cccc3F)c2F)c(-c2ccnc(N)n2)s1` [Dabrafenib] (2500 nM), `Cc1nc(C(=O)NCC(=O)O)c(O)c2ccc(Oc3ccccc3)cc12` [FG-4592] (10000 nM) is higher in normalised response: 95% for the first, 98.5% for the second.

`CN(C)C(=N)NC(=N)N` [Metformin] (100000 nM) showed a normalised response of 93%.

Test system: HCC1599
Assay: as above
Settings: incubation time: 72 h
Protocol: as §1

Compared with `CCn1c(C(=O)N(C2CC2)C2CC2)cc2c3c(ncn3C)c(Nc3cc(C)n(C)n3)nc21` (10000 nM), `C=CCN(/C=C1/C(=O)O[C@H](COC)[C@@]2(C)C1=C(O)C(=O)C1=C2[C@H](OC(C)=O)C[C@]2(C)C(=O)CC[C@@H]12)CC=C` [Sonolisib] (10000 nM) is lower in normalised response: 123% for the first, 102% for the second.

Going from `CN[C@@H](C)C(=O)N[C@H]1CN(C(=O)CC(C)C)CC[C@H]2CC[C@@H](C(=O)NC(c3ccccc3)c3ccccc3)N2C1=O` [AT-406] (10000 nM) to `O=C(O)CNC(=O)c1c(O)c2ccccc2n(Cc2ccccc2)c1=O` [IOX-2] (50000 nM), the normalised response falls from 97.5% to 97.3%.

Compared with `CCN(CC)CCCC(C)Nc1ccnc2cc(Cl)ccc12` (stereo not given) [Chloroquine] (100000 nM), `CN(Cc1cnc2nc(N)nc(N)c2n1)c1ccc(C(=O)N[C@@H](CCC(=O)O)C(=O)O)cc1` [Methotrexate] (50000 nM) is higher in normalised response: 0.3% for the first, 52.4% for the second.

First: CC(C)(C)c1nc(-c2cccc(NS(=O)(=O)c3c(F)cccc3F)c2F)c(-c2ccnc(N)n2)s1 [Dabrafenib] (2500 nM)
Second: Cc1nc(C(=O)NCC(=O)O)c(O)c2ccc(Oc3ccccc3)cc12 [FG-4592] (10000 nM)
The normalised response of the first is lower: 89.4% for the first, 92% for the second.

Work on `CN(C)C(=N)NC(=N)N` [Metformin] (100000 nM) yielded a normalised response of 108%.

Test system: HCC1937
Assay: as above
Settings: incubation time: 72 h
Protocol: as §1

First: CCn1c(C(=O)N(C2CC2)C2CC2)cc2c3c(ncn3C)c(Nc3cc(C)n(C)n3)nc21 (10000 nM)
Second: C=CCN(/C=C1/C(=O)O[C@H](COC)[C@@]2(C)C1=C(O)C(=O)C1=C2[C@H](OC(C)=O)C[C@]2(C)C(=O)CC[C@@H]12)CC=C [Sonolisib] (10000 nM)
The normalised response of the first is higher: 92.8% for the first, 90.4% for the second.

Compared with `CN[C@@H](C)C(=O)N[C@H]1CN(C(=O)CC(C)C)CC[C@H]2CC[C@@H](C(=O)NC(c3ccccc3)c3ccccc3)N2C1=O` [AT-406] (10000 nM), `O=C(O)CNC(=O)c1c(O)c2ccccc2n(Cc2ccccc2)c1=O` [IOX-2] (50000 nM) is higher in normalised response: 88% for the first, 98.2% for the second.

Going from `CCN(CC)CCCC(C)Nc1ccnc2cc(Cl)ccc12` (stereo not given) [Chloroquine] (100000 nM) to `CN(Cc1cnc2nc(N)nc(N)c2n1)c1ccc(C(=O)N[C@@H](CCC(=O)O)C(=O)O)cc1` [Methotrexate] (50000 nM), the normalised response rises from 3.72% to 31.5%.

First: CC(C)(C)c1nc(-c2cccc(NS(=O)(=O)c3c(F)cccc3F)c2F)c(-c2ccnc(N)n2)s1 [Dabrafenib] (2500 nM)
Second: Cc1nc(C(=O)NCC(=O)O)c(O)c2ccc(Oc3ccccc3)cc12 [FG-4592] (10000 nM)
The normalised response of the first is lower: 96.8% for the first, 100% for the second.

For `CN(C)C(=N)NC(=N)N` [Metformin] (100000 nM), the normalised response was 86.8%.

Test system: HDQ-P1
Assay: as above
Settings: incubation time: 72 h
Protocol: as §1

With `CCn1c(C(=O)N(C2CC2)C2CC2)cc2c3c(ncn3C)c(Nc3cc(C)n(C)n3)nc21` (10000 nM) the normalised response was 101%.
